The text below walks through data of patent EP4311830A1 (King Faisal Specialist Hospital & Research Centre, priority 2022, dated 2024).

For orientation: IC50 means the concentration at which inhibition is half-maximal. Low readings indicate greater potency in that assay, high ones weaker potency in that assay.

Common to all, as to type: cell-based
One experiment concerns HCT-116. The experiment is described as follows: Cytotoxicity assay (WST1). Conditions: Colon, HCT-116, WST1. As for the experimental part: (§1) 5,000 cells/well were seeded in 96-well plates with appropriate culture media. After cells treatment, WST-1 reagent (Sigma-Aldrich) was added to each well according to the manufacturer's instructions. These experiments were performed in triplicates and were repeated several times.
(In general: Formazan colour is commonly taken as a measure of viable cells.)

Experiment [1] deals with human fibroblast cells (HFSN1). The experiment is described as follows: γ-H2AX immunofluorescence (DNA damage). Conditions: cisplatin 50 µM for 24 h. The method, then: Since cisplatin is a DNA damaging chemotherapeutic drug, we investigated whether eugenoplatin can also promote DNA damage in cells. […] To confirm this, we assessed the level of the phosphorylated form of p53 (P.p53) in eugenoplatin-treated cells. […] This was accompanied by a late increase in the level of the p53 target p21 (Fig. 7B).
HFSN1 cells were fixed in formaldehyde (4%) for 19 minutes and blocked with Goat serum (5%), triton X (0.3%) and 1% sodium azide (5%) for 1 hour. The slides were then stained overnight at 4 °C with γ-H2AX antibody (pSer139) (Novusibio) that diluted in BSA (1%), triton X (0.3%) and 1 % sodium azide (5%), and subsequently incubated with alexa flour 594-conjugated goat anti-rabbit IgG and DAPI for 1 hour. Images were acquired using fluorescence microscope (Zeiss).

The subject of another experiment is CSC (MDA-MB-231). The experiment is described as follows: WST1 cytotoxicity on pre-formed tumorspheres (cancer stem cells). The following applies: cisplatin 50 µM for 24 h, MDA-MB-231 tumorspheres. As for the experimental part: (§2) It is well known that cancer stem cells are the most resistant type of cells, which are responsible for recurrence and metastasis (Garcia-Mayea et al., 2020). Therefore, we decided to investigate the effect of eugenoplatin on the self-renewal ability and sternness capacity of cancer cells. To this end, cancer cells were first either sham-treated (DMSO) or challenged with eugenoplatin (3 µM) for 24 h, and then were incubated in 96 well ultra-low attachment plates in the presence of stem cells culture medium. After 10 days, the formed spheroids with a dimeter ≥ 100 µm were counted (Fig. 6A).
as §1
(§3) Cells were seeded in 96 well ultra-low attachment plate at a density of 1000 viable cells/well. Cells were cultured in 171 medium supplemented with 1% ABM, 2% B-27, 20 ng/mL EGF, 500 ng/ml HC, 4% FBS and 5 µg/ml insulin. Cells were incubated for 10 days at 37°C under 5% CO2. Mammospheres with a diameter of ≥100 µm were counted using OPTIKA light microscope.

A further experiment has as its system CSC (MG-64). The experiment is described as above. Conditions: cisplatin 50 µM for 24 h, MG-64 tumorspheres. The method, then:
as §2, §1, §3

The test system of a further experiment is MG-64. The experiment is described as follows: Cytotoxicity assay (WST1). The following applies: Osteosarcoma, MG-64, WST1. The method, then: as §1
The test system of the next experiment is Cal62. The experiment is described as follows: Cytotoxicity assay (WST1). The following applies: Thyroid. The method, then: as §1
The subject of another experiment is H-1937. The experiment is described as follows: Cytotoxicity assay (WST1). The following applies: Lung, H-1937, WST1. The method, then: as §1
The next experiment has as its system A1235. The experiment is described as follows: Cytotoxicity assay (WST1). Conditions: Glioblastoma. As for the experimental part: as §1
For a further experiment, the system named is OV-2774. The experiment is described as follows: Cytotoxicity assay (WST1). The following applies: Ovarian, OV-2774, WST1. As for the experimental part: as §1

Take `O=C(O)C(=O)O.[NH-][C@@H]1CCCC[C@H]1[NH-].[Pt+2]` [Oxaliplatin]: the IC50 in the experiment on HCT-116 stood at 3.17 ± 0.52 µM.

Regarding `N.N.[Cl][Pt][Cl]` [Cisplatin, (SP-4-2)-diamminedichloridoplatinum(II)], in experiment [1], the γ-H2AX immunostaining result is “strong nuclear staining”. Further, the “proportion of survival CSC” value in the experiment on CSC (MDA-MB-231) and in the experiment on CSC (MG-64) was “not affected” each time. Besides, the IC50 in the experiment with MG-64 came to 26 ± 4 µM; with Cal62, 25.7 ± 2.19 µM; in the experiment on H-1937, 67.8 ± 7.75 µM; in the experiment on A1235 it was 55.8 ± 18.2 µM.

Regarding `N.N.O=C([O-])C1(C(=O)[O-])CCC1.[Pt+2]` [Carboplatin], the IC50 in the experiment on OV-2774 came to 53.3 ± 0.67 µM.
